From patent publication US11117903B2, “Pyridine derivatives” (Hoffmann-La Roche Inc., priority 2017, dated 2021)
Like-named read-outs stand apart in the source and are kept apart here.

Biological target: T1, human CB2 receptors (Homo sapiens, UniProt P34972)
T1 construct: expressed in transfected cells; host or cells: CHO cells
Experiment: cAMP assay human CB2
Format: cell-based
Details: for Percent relative efficacy compared to the reference agonist CP55940 for which this value is set to +100%: negative values = inverse agonists, CP55940 = +100%
Experimental: The growth medium was exchanged with Krebs Ringer Bicarbonate buffer with 1 mM IBMX and incubated at 30° C. for 30 min. Compounds were added to a final assay volume of 100 μl and incubated for 30 min at 30° C. […] The time-resolved energy transfer is measured by a TRF reader (Evotec Technologies GmbH), equipped with a ND:YAG laser as excitation source. The plate is measured twice with the excitation at 355 nm and at the emission with a delay of 100 ns and a gate of 100 ns, total exposure time 10s at 730 (bandwidth 30 nm) or 645 nm (bandwidth 75 nm), respectively.
EC50 values were determined using Activity Base analysis (ID Business Solution, Limited).

[1] = CHO cells expressing human CB2 receptors, read-out: cAMP assay human CB2 EC50

T1 sequence (P34972 whole entry): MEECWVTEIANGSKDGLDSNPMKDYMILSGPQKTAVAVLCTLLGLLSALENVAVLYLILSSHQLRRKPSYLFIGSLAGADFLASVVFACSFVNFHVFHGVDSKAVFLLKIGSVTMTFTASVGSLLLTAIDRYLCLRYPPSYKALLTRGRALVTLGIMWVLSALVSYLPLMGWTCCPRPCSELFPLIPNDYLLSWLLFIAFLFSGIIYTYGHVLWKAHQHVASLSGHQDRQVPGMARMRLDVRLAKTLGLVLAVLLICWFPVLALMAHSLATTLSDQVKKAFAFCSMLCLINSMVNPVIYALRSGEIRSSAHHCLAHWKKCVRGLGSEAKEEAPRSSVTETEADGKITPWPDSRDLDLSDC

How did the EC50 turn out when CC(C)(C)OC(=O)N1CCC[C@H]1COc1cc(-c2noc(C(C)(C)C)n2)ncc1C1CC1 [Example 15, tert-Butyl (2S)-2-[[2-(5-tert-butyl-1,2,4-oxadiazol-3-yl)-5-cyclopropylpyridin-4-yl]oxymethyl]pyrrolidine-1-carboxylate] was run?
Its EC50 is 1510 nM.

What about the “Percent relative efficacy compared to the reference agonist CP55940 for which this value is set to +100%” value (from here on “Percent relative efficacy … to +100%”) of the same compound?
The value was −75.2%.

What does the source list for CNC(=O)[C@@H](NC(=O)c1cc(OCC2(C)COC2)c(C2CC2)cn1)C(C)(C)C [Example 13, 5-Cyclopropyl-N-[(2S)-3,3-dimethyl-1-(methylamino)-1-oxobutan-2-yl]-4-[(3-methyloxetan-3-yl)methoxy]pyridine-2-carboxamide]?
EC50 [1]: 26.1 nM; Percent relative efficacy compared to the reference agonist CP55940 for which this value is set to +100%: −158.8%

What does the source list for Cc1nc(C(C)(CC2CC2)NC(=O)c2cc(OCC3(C)CC3(F)F)c(Cl)cn2)no1 (stereo not shown) [Example 20, 5-Chloro-N-[1-cyclopropyl-2-(5-methyl-1,2,4-oxadiazol-3-yl)propan-2-yl]-4-[(2,2-difluoro-1-methylcyclopropyl)methoxy]pyridine-2-carboxamide]?
EC50: 420 nM; Percent relative efficacy compared to the reference agonist CP55940 for which this value is set to +100%: −150.8%

For CC(C)C[C@@H](CO)NC(=O)c1cc(-c2ccc(Cl)cc2Cl)c(OCC2CC2)cn1 [Example 1, 5-(Cyclopropylmethoxy)-4-(2,4-dichlorophenyl)-N-[(2S)-1-hydroxy-4-methylpentan-2-yl]pyridine-2-carboxamide], which EC50 is on record?
Its EC50 is 15.2 nM.

And the “Percent relative efficacy … to +100%” value?
Its value is −40.1%.

With O=C(N[C@@H](c1ccccn1)C(F)(F)F)c1cc(OCC2CC2)c(Cl)cn1 [Example 9, (−) 5-Chloro-4-(cyclopropylmethoxy)-N-[2,2,2-trifluoro-1-pyridin-2-ylethyl]pyridine-2-carboxamide] as the compound, how does the EC50 read?
The EC50 was 296 nM.

What about the “Percent relative efficacy … to +100%” value of the same compound?
The value was −114.7%.

What does the source list for CNC(=O)[C@H](CC(C)C)NC(=O)c1cc(OCC2CC2)c(Cl)cn1 [Example 11, 5-Chloro-4-(cyclopropylmethoxy)-N-[(2S)-4-methyl-1-(methylamino)-1-oxopentan-2-yl]pyridine-2-carboxamide]?
EC50: 181 nM; Percent relative efficacy compared to the reference agonist CP55940 for which this value is set to +100%: −28.5%

Which EC50 does the source give for CC(C)(C)OC(=O)N1CC[C@@H](Oc2cc(-c3noc(C(C)(C)C)n3)ncc2C2CC2)C1 [Example 16, tert-Butyl (3R)-3-[2-(5-tert-butyl-1,2,4-oxadiazol-3-yl)-5-cyclopropylpyridin-4-yl]oxypyrrolidine-1-carboxylate] here?
Its EC50 is 315 nM.

What about the “Percent relative efficacy … to +100%” value of the same compound?
The value was −103.1%.

With Cc1nnc(C(C)(NC(=O)c2cc(OCC(F)(F)F)c(C3CC3)cn2)C2CNC2)o1 (stereo not shown) [Example 18, N-[1-(azetidin-3-yl)-1-(5-methyl-1,3,4-oxadiazol-2-yl)ethyl]-5-cyclopropyl-4-(2,2,2-trifluoroethoxy)pyridine-2-carboxamide] as the compound, how does the EC50 [1] read?
The EC50 was 7210 nM.

What about the “Percent relative efficacy … to +100%” value of the same compound?
The value was −48.7%.

Which EC50 does the source give for Cc1nc(C(C)(CC2CC2)NC(=O)c2cc(On3nnc4ccccc43)c(C(F)(F)F)cn2)no1 (stereo not shown) [Example 21, 4-(Benzotriazol-1-yloxy)-N-[1-cyclopropyl-2-(5-methyl-1,2,4-oxadiazol-3-yl)propan-2-yl]-5-(trifluoromethyl)pyridine-2-carboxamide] here?
The EC50 was 87 nM.

What about the “Percent relative efficacy … to +100%” value of the same compound?
The value was −147.5%.

How did the EC50 turn out when CNC(=O)[C@@H](CC(C)C)NC(=O)c1cc(OCC2CC2)c(Cl)cn1 [Example 12, 5-Chloro-4-(cyclopropylmethoxy)-N-[(2R)-4-methyl-1-(methylamino)-1-oxopentan-2-yl]pyridine-2-carboxamide] was run?
The EC50 was 3230 nM.

And the “Percent relative efficacy … to +100%” value?
The value was −40.1%.

For O=C(N[C@H]1CCCC[C@H]1O)c1cc(-c2ccc(Cl)cc2)c(OCC2CC2)cn1 [Example 3, 4-(4-Chlorophenyl)-5-(cyclopropylmethoxy)-N-[(1 S,2R)-2-hydroxycyclohexyl]pyridine-2-carboxamide], which EC50 is on record?
Its EC50 is 46.6 nM.

And the “Percent relative efficacy … to +100%” value?
The value was −85.1%.

Which EC50 does the source give for CCC(CC)(NC(=O)c1cc(-c2ccc(Cl)cc2)c(OCC2CC2)cn1)C(=O)OC [Example 4, Methyl 2-[[4-(4-chlorophenyl)-5-(cyclopropylmethoxy)pyridine-2-carbonyl]amino]-2-ethylbutanoate] here?
The EC50 was 14.4 nM.

What about the “Percent relative efficacy … to +100%” value of the same compound?
The value was −70.5%.

With CNC(=O)[C@@H](NC(=O)c1cc(OCC2CC2)c(Cl)cn1)C(C)(C)C [Example 8, 5-Chloro-4-(cyclopropylmethoxy)-N-[(2S)-3,3-dimethyl-1-(methylamino)-1-oxobutan-2-yl]pyridine-2-carboxamide] as the compound, how does the EC50 read?
The EC50 was 4.4 nM.

And the “Percent relative efficacy … to +100%” value?
The value was −141.9%.

Which results are given for CC(C)(C)c1nc(-c2cc(OCC3CC3)c(N3CC4(COC4)C3)cn2)no1 [Example 14, 6-[6-(5-tert-Butyl-1,2,4-oxadiazol-3-yl)-4-(cyclopropylmethoxy)pyridin-3-yl]-2-oxa-6-azaspiro[3.3]heptane]?
EC50: 36.7 nM; Percent relative efficacy compared to the reference agonist CP55940 for which this value is set to +100%: −65.9%

How did the EC50 turn out when Cc1nc([C@](C)(CC2CC2)NC(=O)c2cc(-c3ccc(F)nc3)c(OCc3ccccc3)cn2)no1 [Example 23, N-[(2S)-1-Cyclopropyl-2-(5-methyl-1,2,4-oxadiazol-3-yl)propan-2-yl]-4-(6-fluoropyridin-3-yl)-5-phenylmethoxypyridine-2-carboxamide] was run?
The EC50 was 1030 nM.

And the “Percent relative efficacy … to +100%” value?
The value was −87.7%.

What does the source list for O=C(N[C@@H](CO)c1ccccc1)c1cc(OCC2CC2)c(Cl)cn1 [Example 7, 5-Chloro-4-(cyclopropylmethoxy)-N-[(1R)-2-hydroxy-1-phenylethyl]pyridine-2-carboxamide]?
EC50: 497 nM; Percent relative efficacy compared to the reference agonist CP55940 for which this value is set to +100%: −41.7%

With CCC(CC)(NC(=O)c1cc(-c2ccc(Cl)c(Cl)c2)c(OCC2CC2)cn1)C(=O)OC [Example 5, Methyl 2-[[5-(cyclopropylmethoxy)-4-(3,4-dichlorophenyl)pyridine-2-carbonyl]amino]-2-ethylbutanoate] as the compound, how does the EC50 read?
The EC50 was 6.9 nM.

What about the “Percent relative efficacy … to +100%” value of the same compound?
The value was −128.6%.

CCOC(=O)C(CC)(CC)NC(=O)c1cc(OCC2(C)COC2)c(C2CC2)cn1 [Example 19, Ethyl 2-[[5-cyclopropyl-4-[(3-methyloxetan-3-yl)methoxy]pyridine-2-carbonyl]amino]-2-ethylbutanoate] was tested. Which EC50 did it give?
Its EC50 is 148 nM.

And the “Percent relative efficacy … to +100%” value?
Its value is 13%.

Which results are given for CC(C)(C)c1nc(-c2cc(OCc3cccc(S(C)(=O)=O)c3)c(C3CC3)cn2)no1 [Example 17, 5-tert-Butyl-3-[5-cyclopropyl-4-[(3-methylsulfonylphenyl)methoxy]pyridin-2-yl]-1,2,4-oxadiazole]?
EC50 [1]: 2010 nM; Percent relative efficacy compared to the reference agonist CP55940 for which this value is set to +100%: −49.9%

Which results are given for O=C(N[C@H](c1cccnc1)C(F)(F)F)c1cc(OCC2CC2)c(Cl)cn1 [Example 10, 5-Chloro-4-(cyclopropylmethoxy)-N-[(1R)-2,2,2-trifluoro-1-pyridin-3-ylethyl]pyridine-2-carboxamide]?
EC50: 1560 nM; Percent relative efficacy compared to the reference agonist CP55940 for which this value is set to +100%: −36.8%

With O=C(N[C@@H]1CCCC[C@@H]1O)c1cc(-c2ccc(Cl)cc2)c(OCC2CC2)cn1 [Example 2, 4-(4-Chlorophenyl)-5-(cyclopropylmethoxy)-N-[(1R,2S)-2-hydroxycyclohexyl]pyridine-2-carboxamide] as the compound, how does the EC50 read?
The EC50 was 257 nM.

What about the “Percent relative efficacy … to +100%” value of the same compound?
The value was −90.6%.

Which results are given for CC(CC(N)=O)(NC(=O)c1cc(OCc2ccc(F)cn2)c(C2CC2)cn1)C1CC1 (stereo not shown) [Example 22, N-(4-Amino-2-cyclopropyl-4-oxobutan-2-yl)-5-cyclopropyl-4-[(5-fluoropyridin-2-yl)methoxy]pyridine-2-carboxamide]?
EC50: 47.1 nM; Percent relative efficacy compared to the reference agonist CP55940 for which this value is set to +100%: −78.4%

What does the source list for CO[C@H]1CCCC[C@H]1NC(=O)c1cc(-c2ccc(Cl)cc2)c(OCC2CC2)cn1 [Example 6, 4-(4-chlorophenyl)-5-(cyclopropylmethoxy)-N-[(1R,2S)-2-methoxycyclohexyl]pyridine-2-carboxamide]?
EC50: 124 nM; Percent relative efficacy compared to the reference agonist CP55940 for which this value is set to +100%: −102.9%
